Laboratory results reported in patent publication US9403823B2, “Protein kinase inhibitors” (ORIBASE PHARMA, priority 2012, dated 2016).
pEC50: −log10 of the molar value. Where two headings read alike, the source gives them in different places.

Experiments:
[1] = tested on: H1975 cell line; assay: In vitro cell proliferation assay (MTT), H1975; format: cell-based; conditions: Homo sapiens, read-out: EC50, anti-proliferative activity
Description: (§1) 2) In Vitro Cell Proliferation Assays (Table 22 to Table 35)
(§2) Cancer cell lines (5×10^3 cells per well) or HUVEC (1×10^4 cells per well) or HRMEC (1×10^4 cells per well) were distributed in 96-well plates and incubating in duplicate with escalating concentrations (10 nM to 3 μM) of compounds for 72 hr. Cell proliferation was measured using MTT (3[4,5-dimethylthiazol-2-yl]-2,5-diphenyltetrazolium bromide).

[2] = target: T1, FGFR2 (Homo sapiens, UniProt P21802); assay: In vitro kinase assay (Z'-LYTE), FGFR2; format: biochemical; conditions: read-out: % of inhibition of the kinase compared to the control
T1 construct: purchased Invitrogen
Summary of the method: (§3)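 FRET-based Z'-LYTE coupled-enzyme assay: kinase phosphorylates a dual-fluorophore peptide, unphosphorylated peptide is protease-cleaved, and donor/acceptor emission ratio after 400 nm excitation quantifies progress. Buffer 50 mM HEPES pH 7.5, 10 mM MgCl2, 1 mM EGTA, 0.01% BRIJ-35; 1% DMSO final. Single compound concentration: 100 nM, or 10 μM for ABL and ABL T315I.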

[3] = tested on: HuH6 Clone 5 cell line; assay: In vitro cell proliferation assay (MTT), HuH6 Clone 5; format: cell-based; conditions: read-out: EC50, anti-proliferative activity
Description: as §1, §2

[4] = tested on: HuH7 cell line; assay: In vitro cell proliferation assay (MTT), HuH7; format: cell-based; conditions: Homo sapiens, read-out: EC50, anti-proliferative activity
Description: as §1, §2

[5] = target: T2, PDGFRA (PDGFR alpha) (Homo sapiens, UniProt P16234); assay: In vitro kinase assay (Z'-LYTE), PDGFRA; format: biochemical; conditions: read-out: % of inhibition of the kinase compared to the control
T2 construct: purchased Invitrogen
T2 sequence (P16234 24-1089): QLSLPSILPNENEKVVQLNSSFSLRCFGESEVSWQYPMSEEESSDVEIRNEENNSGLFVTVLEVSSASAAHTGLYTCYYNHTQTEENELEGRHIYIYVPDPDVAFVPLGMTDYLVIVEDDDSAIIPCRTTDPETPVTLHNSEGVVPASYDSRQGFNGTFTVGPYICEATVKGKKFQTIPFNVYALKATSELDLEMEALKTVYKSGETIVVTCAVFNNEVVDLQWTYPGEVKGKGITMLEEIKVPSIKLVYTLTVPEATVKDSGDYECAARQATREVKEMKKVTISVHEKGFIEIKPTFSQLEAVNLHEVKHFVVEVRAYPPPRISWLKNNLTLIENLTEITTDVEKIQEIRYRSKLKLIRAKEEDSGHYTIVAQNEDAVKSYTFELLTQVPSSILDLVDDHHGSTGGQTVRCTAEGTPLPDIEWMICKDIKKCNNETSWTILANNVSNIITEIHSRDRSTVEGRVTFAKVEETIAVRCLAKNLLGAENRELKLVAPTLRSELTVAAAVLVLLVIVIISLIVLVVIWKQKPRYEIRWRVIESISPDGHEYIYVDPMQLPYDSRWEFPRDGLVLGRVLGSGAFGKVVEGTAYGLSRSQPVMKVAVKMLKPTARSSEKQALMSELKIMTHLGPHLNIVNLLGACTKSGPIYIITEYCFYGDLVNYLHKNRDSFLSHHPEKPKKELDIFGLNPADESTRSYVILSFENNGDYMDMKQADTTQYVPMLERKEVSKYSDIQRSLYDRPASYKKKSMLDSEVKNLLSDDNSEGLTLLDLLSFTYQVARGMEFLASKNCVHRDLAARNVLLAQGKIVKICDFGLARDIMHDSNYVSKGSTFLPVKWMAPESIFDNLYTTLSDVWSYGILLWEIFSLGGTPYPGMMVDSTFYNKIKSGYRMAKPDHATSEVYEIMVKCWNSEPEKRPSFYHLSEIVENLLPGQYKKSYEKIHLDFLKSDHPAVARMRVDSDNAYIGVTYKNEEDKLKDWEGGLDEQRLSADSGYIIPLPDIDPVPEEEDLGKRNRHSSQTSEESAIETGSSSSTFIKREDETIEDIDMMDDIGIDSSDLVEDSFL
Summary of the method: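 Inhibition read as emission ratio (donor/acceptor, 400 nm excitation) of a FRET-labelled peptide, phosphorylation protecting it from proteolytic cleavage. Compounds tested once at 100 nM for VEGFR1 and PDGFRA, at 10 μM for ABL and ABL T315I, 1% DMSO final. ATP at previously determined apparent Km.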

[6] = tested on: HepG2 cell line; assay: In vitro cell proliferation assay (MTT), HepG2; format: cell-based; conditions: Homo sapiens, read-out: EC50, anti-proliferative activity
Summary of the method: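 Cancer cell lines were seeded at 5×10^3 cells per well and HRMEC at 1×10^4 cells per well, then incubated in duplicate with escalating compound concentrations (10 nM to 3 μM) for 72 hr. Proliferation was read by MTT.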

[7] = tested on: A549 cell line; assay: In vitro cell proliferation assay (MTT), A549; format: cell-based; conditions: Homo sapiens, read-out: EC50, anti-proliferative activity
Description: as §1, §2

[8] = target: T3, EGFR (ErbB1) (Homo sapiens, UniProt P00533); assay: In vitro kinase assay (Z'-LYTE), EGFR (ErbB1); format: biochemical; conditions: read-out: % of inhibition of the kinase compared to the control
T3 construct: purchased Invitrogen
Summary of the method: as §3

[9] = tested on: HT29 cell line; assay: In vitro cell proliferation assay (MTT), HT29; format: cell-based; conditions: Homo sapiens, read-out: EC50, anti-proliferative activity
Description: as §1, §2

[10] = tested on: HeLa cell line; assay: In vitro cell proliferation assay (MTT), HeLa; format: cell-based; conditions: Homo sapiens, 72 hr, MTT, read-out: EC50, anti-proliferative activity
Description: as §1, §2

[11] = tested on: HRMEC cells; assay: In vitro cell proliferation assay (MTT), HRMEC; format: cell-based; conditions: 72 h, read-out: EC50, anti-proliferative activity
Description: as §1, §2

[12] = target: T4, KDR (VEGFR2) (Homo sapiens, UniProt P35968); assay: In vitro kinase assay (Z'-LYTE), KDR (VEGFR2); format: biochemical; conditions: read-out: % of inhibition of the kinase compared to the control
T4 construct: purchased Invitrogen
T4 sequence (P35968 20-1356): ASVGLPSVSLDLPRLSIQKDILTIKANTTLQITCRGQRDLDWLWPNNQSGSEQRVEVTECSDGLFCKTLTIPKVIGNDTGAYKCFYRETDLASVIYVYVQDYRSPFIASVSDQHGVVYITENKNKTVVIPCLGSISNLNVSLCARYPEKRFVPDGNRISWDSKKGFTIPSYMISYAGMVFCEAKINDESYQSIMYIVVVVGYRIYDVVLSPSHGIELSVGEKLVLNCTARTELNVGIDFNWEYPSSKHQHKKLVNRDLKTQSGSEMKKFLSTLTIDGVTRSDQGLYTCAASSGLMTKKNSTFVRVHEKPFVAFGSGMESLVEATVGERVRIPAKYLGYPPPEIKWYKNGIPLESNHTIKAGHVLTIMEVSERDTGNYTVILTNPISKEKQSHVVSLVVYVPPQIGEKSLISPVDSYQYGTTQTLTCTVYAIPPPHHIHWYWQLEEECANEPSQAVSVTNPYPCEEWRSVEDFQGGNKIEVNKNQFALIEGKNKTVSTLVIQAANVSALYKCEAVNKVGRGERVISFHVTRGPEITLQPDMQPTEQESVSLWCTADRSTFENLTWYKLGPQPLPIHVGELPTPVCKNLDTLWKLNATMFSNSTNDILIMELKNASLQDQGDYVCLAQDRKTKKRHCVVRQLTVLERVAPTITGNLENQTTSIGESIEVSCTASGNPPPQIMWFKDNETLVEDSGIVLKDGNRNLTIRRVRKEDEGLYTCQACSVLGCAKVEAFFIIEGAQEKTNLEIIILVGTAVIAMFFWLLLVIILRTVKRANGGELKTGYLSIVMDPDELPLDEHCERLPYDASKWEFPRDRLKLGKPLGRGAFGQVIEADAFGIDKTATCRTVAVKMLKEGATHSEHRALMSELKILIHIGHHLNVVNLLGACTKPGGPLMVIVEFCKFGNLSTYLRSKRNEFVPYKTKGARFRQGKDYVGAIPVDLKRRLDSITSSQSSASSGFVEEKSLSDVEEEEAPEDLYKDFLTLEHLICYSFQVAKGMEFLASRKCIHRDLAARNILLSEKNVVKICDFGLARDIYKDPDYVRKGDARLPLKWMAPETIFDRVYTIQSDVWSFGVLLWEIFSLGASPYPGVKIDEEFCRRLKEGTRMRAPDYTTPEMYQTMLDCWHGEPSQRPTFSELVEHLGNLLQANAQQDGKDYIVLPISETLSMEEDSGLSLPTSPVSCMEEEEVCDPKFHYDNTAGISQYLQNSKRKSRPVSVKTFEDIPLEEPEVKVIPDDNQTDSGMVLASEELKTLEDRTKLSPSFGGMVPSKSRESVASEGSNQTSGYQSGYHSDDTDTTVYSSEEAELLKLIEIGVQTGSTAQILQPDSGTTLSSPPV
Summary of the method: as §3

[13] = target: T5, BRAF (Homo sapiens, UniProt P15056); assay: In vitro kinase assay (Z'-LYTE), BRAF; format: biochemical; conditions: read-out: % of inhibition of the kinase compared to the control
T5 construct: purchased Invitrogen
T5 sequence (P15056 whole entry): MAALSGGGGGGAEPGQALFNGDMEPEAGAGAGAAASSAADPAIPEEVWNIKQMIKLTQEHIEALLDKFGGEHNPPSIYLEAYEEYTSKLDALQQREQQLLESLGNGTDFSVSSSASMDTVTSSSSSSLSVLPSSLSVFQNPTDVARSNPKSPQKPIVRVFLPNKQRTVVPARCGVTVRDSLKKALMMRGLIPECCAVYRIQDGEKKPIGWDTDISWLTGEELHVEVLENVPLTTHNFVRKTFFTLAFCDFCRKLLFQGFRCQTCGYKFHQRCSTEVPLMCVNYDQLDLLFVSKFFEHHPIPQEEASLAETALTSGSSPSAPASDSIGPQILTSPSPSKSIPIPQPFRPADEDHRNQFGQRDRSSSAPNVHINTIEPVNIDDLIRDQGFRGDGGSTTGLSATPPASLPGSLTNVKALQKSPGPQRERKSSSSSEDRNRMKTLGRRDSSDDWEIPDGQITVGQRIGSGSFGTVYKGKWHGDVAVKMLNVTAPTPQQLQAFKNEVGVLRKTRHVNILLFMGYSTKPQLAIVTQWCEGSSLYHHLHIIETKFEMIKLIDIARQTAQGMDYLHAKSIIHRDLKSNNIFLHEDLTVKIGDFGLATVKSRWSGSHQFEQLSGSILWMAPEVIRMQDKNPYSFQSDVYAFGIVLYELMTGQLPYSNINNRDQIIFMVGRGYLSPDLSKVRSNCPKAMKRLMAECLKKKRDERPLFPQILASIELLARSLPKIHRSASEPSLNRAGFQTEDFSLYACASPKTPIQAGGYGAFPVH
Summary of the method: as §3

[14] = tested on: MDA-MB-231 cell line; assay: In vitro cell proliferation assay (MTT), MDA-MB-231; format: cell-based; conditions: Homo sapiens, MDA-MB-231, 72 h; read-out: EC50, anti-proliferative activity
Description: as §1, §2

[15] = tested on: HUVEC; assay: In vitro cell proliferation assay (MTT), HUVEC; format: cell-based; conditions: Homo sapiens, read-out: EC50, anti-proliferative activity
Summary of the method: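 HUVEC cells were plated at 1×10^4 cells per well in 96-well plates and exposed in duplicate to increasing compound concentrations from 10 nM to 3 μM for 72 hr. Proliferation was then quantified with MTT (3[4,5-dimethylthiazol-2-yl]-2,5-diphenyltetrazolium bromide) to determine anti-proliferative activity.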

[16] = tested on: HuCCT1 cell line; assay: In vitro cell proliferation assay (MTT), HuCCT1; format: cell-based; conditions: Homo sapiens, read-out: EC50, anti-proliferative activity
Description: as §1, §2

[17] = target: T6, SRC (Homo sapiens, UniProt P12931); assay: In vitro kinase assay (Z'-LYTE), SRC; format: biochemical; conditions: read-out: % of inhibition of the kinase compared to the control
T6 construct: purchased Invitrogen
T6 sequence (P12931 whole entry): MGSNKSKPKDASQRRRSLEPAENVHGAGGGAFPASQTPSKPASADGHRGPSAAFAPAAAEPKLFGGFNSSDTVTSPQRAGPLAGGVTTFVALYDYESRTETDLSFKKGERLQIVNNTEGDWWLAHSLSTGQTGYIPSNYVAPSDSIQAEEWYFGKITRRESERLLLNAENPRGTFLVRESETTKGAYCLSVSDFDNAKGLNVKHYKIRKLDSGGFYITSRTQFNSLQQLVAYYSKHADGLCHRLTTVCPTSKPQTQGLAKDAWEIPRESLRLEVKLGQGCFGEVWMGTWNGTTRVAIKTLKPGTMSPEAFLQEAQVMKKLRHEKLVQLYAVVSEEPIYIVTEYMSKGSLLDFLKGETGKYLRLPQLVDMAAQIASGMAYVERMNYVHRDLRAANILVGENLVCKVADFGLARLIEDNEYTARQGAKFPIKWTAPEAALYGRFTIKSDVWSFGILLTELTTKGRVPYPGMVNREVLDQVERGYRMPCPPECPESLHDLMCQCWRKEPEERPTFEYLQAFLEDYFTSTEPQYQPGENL
Summary of the method: as §3

[18] = target: T7, EGFR (ErbB1) T790M L858R (Homo sapiens, UniProt P00533, L858R/T790M); assay: In vitro kinase assay (Z'-LYTE), EGFR (ErbB1) T790M L858R; format: biochemical; conditions: read-out: % of inhibition of the kinase compared to the control
T7 construct: purchased Invitrogen
T7 sequence (P00533 25-1210 T790M/L858R): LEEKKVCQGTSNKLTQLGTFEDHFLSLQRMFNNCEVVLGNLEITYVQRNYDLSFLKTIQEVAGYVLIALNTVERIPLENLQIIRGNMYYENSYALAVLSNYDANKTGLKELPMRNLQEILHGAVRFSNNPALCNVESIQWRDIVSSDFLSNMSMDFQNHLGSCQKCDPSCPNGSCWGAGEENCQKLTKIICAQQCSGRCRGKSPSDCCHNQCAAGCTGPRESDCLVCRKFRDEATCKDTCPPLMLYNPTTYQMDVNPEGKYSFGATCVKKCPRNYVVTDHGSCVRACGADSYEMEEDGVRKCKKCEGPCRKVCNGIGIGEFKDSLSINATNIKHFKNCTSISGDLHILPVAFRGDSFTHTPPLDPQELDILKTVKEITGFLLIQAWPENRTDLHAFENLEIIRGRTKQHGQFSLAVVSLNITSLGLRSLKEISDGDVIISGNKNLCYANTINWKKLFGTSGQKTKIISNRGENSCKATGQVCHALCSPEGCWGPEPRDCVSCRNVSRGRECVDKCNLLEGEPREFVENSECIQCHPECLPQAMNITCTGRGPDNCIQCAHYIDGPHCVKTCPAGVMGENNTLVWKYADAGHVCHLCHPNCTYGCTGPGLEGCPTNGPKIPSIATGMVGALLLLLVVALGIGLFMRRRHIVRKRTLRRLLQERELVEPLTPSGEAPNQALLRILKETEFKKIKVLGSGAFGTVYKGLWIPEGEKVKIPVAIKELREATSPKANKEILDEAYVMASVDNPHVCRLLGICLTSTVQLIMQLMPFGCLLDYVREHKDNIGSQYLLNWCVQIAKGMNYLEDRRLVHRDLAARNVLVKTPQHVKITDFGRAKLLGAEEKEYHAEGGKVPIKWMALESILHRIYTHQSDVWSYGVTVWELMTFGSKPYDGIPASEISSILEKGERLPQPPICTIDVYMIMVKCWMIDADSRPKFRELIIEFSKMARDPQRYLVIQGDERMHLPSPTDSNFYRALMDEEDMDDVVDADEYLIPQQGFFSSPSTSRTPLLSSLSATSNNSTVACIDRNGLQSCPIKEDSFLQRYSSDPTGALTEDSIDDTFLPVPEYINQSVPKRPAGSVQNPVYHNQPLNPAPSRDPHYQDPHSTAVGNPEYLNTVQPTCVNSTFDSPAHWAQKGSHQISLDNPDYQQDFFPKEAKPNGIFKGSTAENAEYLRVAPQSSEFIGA
Description: 1) In Vitro Kinase Assays (Table 10 to Table 21)
The inhibitory activity of the compounds on several kinases including BRAF, EGFR (ErbB1), EGFR (ErbB1) T790M L858R, FGFR2, KDR (VEGFR2), PDGFRA (PDGFR alpha), SRC and other was evaluated by Invitrogen using the Z′-LYTE® technology. Briefly, the Z′-LYTE® biochemical assay employs a fluorescence-based, coupled-enzyme format and is based on the differential sensitivity of phosphorylated and non-phosphorylated peptides to proteolytic cleavage. The peptide substrate is labeled with two fluorophores—one at each end—that make up a FRET pair. A ratiometric method, which calculates the ratio (the Emission Ratio) of donor emission to acceptor emission after excitation of the donor fluorophore at 400 nm, is used to quantitate reaction progress.
The compounds are screened in 1% DMSO (final) in the well. For 10 point titrations, 3-fold serial dilutions are conducted from the starting concentration. All Peptide/Kinase Mixtures are diluted to a 2× working concentration in the appropriate Kinase Buffer. All ATP Solutions are diluted to a 4× working concentration in Kinase Buffer (50 mM HEPES pH 7.5, 0.01% BRIJ-35, 10 mM MgCl2, 1 mM EGTA). ATP Km apparent is previously determined using a Z′-LYTE® assay.
Each compound was incubated at a concentration of 100 nM (excepted to test the activity against ABL and ABL T315I for which the compounds were incubated at a concentration of 10 μM) and the tables 10 to 21 summarize the results obtained showing the inhibitory power of a compound.

[19] = HUH-6-clone5, HuH6 Clone 5, 72 hr, MTT

SMILES	pEC50 ([1]; NCI-H1975, 72 h)	inhibition at 0.1 µM [2]	pEC50 ([3]; HUH-6-clone5, 72 h)	pEC50 ([4]; Huh-7, 72 h)	inhibition at 0.1 µM [5]	pEC50 ([6]; HepG2, 72 h)	pEC50 ([7]; A549, 72 h)	inhibition at 0.1 µM [8]	pEC50 ([9]; HT-29, 72 h)	pEC50 [10]	pEC50 [11]	inhibition at 0.1 µM [12]	inhibition at 0.1 µM [13]	pEC50 [14]	pEC50 ([15]; 72 h)	pEC50 ([16]; HuCCT-1, 72 h)	inhibition at 0.1 µM [17]	inhibition at 0.1 µM [18]	pEC50 [3, 19]	pEC50 ([6]; HepG2, 72 hr, MTT)	also measured
CNC(=O)c1cc2cc(NCc3cc(NC(=O)c4ccc(CN5CCN(C)CC5)c(C(F)(F)F)c4)ccc3C)cnc2[nH]1 [OR0751, 5-{2-Methyl-5-[4-(4-methyl-piperazin-1-ylmethyl)-3-trifluoromethyl-benzoylamino]-benzylamino}-1H-pyrrolo[2,3-b]pyridine-2-carboxylic acid methylamide]	6.00 to 7.00	≥ 50%	6.00 to 7.00	≥ 7.00	≥ 50%	≥ 7.00	6.00 to 7.00	≥ 50%	≥ 7.00	≤ 6.00	≥ 7.00	≥ 50%	≥ 50%	≥ 7.00	≥ 7.00	6.00 to 7.00	≥ 50%	≥ 50%			
CNC(=O)c1cc2cc(NCc3cc(NC(=O)c4ccc(CN5CCC(N(C)C)C5)c(C(F)(F)F)c4)ccc3C)cnc2[nH]1 (centres unmarked) [OR0752, 5-{5-[4-(3-Dimethylamino-pyrrolidin-1-ylmethyl)-3-trifluoromethyl-benzoylamino]-2-methyl-benzylamino}-1H-pyrrolo[2,3-b]pyridine-2-carboxylic acid methylamide]	6.00 to 7.00	≥ 50%	6.00 to 7.00	6.00 to 7.00	≥ 50%	6.00 to 7.00	6.00 to 7.00	≥ 50%	6.00 to 7.00		≥ 7.00	≥ 50%	≥ 50%		≥ 7.00	6.00 to 7.00	≥ 50%	≥ 50%			
CC(=O)c1cc2cc(NC(=O)c3cc(NC(=O)c4ccc(CN5CCN(C)CC5)c(C(F)(F)F)c4)ccc3C)cnc2[nH]1 [OR0781, N-(2-Acetyl-1H-pyrrolo[2,3-b]pyridin-5-yl)-2-methyl-5-[4-(4-methyl-piperazin-1-ylmethyl)-3-trifluoromethyl-benzoylamino]-benzamide]	6.00 to 7.00	≥ 50%		6.00 to 7.00	≥ 50%			≥ 50%				≥ 50%	≥ 50%		6.00 to 7.00		≥ 50%	≥ 50%	≤ 6.00	≤ 6.00	pEC50 ([7]; A549, 72 hr, MTT): ≤ 6.00; pEC50 ([9]; HT-29, HT29, 72 hr, MTT): ≤ 6.00; pEC50 ([16]; HuCCT-1, HuCCT1, 72 hr, MTT): ≤ 6.00
CC(=O)c1cc2cc(NC(=O)c3cc(NC(=O)c4ccc(CN5CCC(N(C)C)C5)c(C(F)(F)F)c4)ccc3C)cnc2[nH]1 (centres unmarked) [OR0782, N-(2-Acetyl-1H-pyrrolo[2,3-b]pyridin-5-yl)-2-methyl-5-[4-(3-dimethylamino-pyrrolidin-1-ylmethyl)-3-trifluoromethyl-benzoylamino]-benzamide]		≥ 50%			≥ 50%			≥ 50%				≥ 50%	< 50%				≥ 50%	< 50%	≤ 6.00	≤ 6.00	pEC50 ([1]; NCI-H1975, H1975, 72 hr, MTT): ≤ 6.00; pEC50 ([4]; Huh-7, HuH7, 72 hr, MTT): ≤ 6.00; pEC50 ([7]; A549, 72 hr, MTT): ≤ 6.00; pEC50 ([9]; HT-29, HT29, 72 hr, MTT): ≤ 6.00; pEC50 ([15]; 72 hr, MTT): ≤ 6.00; pEC50 ([16]; HuCCT-1, HuCCT1, 72 hr, MTT): ≤ 6.00
CNC(=O)c1cc2cc(NCc3cc(NC(=O)c4ccc(CN5CC[C@H](N(C)C)C5)c(C(F)(F)F)c4)ccc3C)cnc2[nH]1 [OR0813, 5-{5-[4-((S)-3-Dimethylamino-pyrrolidin-1-ylmethyl)-3-trifluoromethyl-benzoylamino]-2-methyl-benzylamino}-1H-pyrrolo-[2,3-b]pyridine-2-carboxylic acid methylamide]		≥ 50%				≥ 7.00	≥ 7.00	≥ 50%		≤ 6.00	6.00 to 7.00	≥ 50%	≥ 50%	6.00 to 7.00	≥ 7.00						
